According to patent US20180179524A1, “COMPOSITIONS AND METHODS FOR INHIBITING CELL PROLIFERATION” (President and Fellows of Harvard College, priority 2015, published 2018):

Test system: Tsc2−/− MEFs
Test: Proliferation of Tsc2-/- MEFs relative to Tsc2+/+ MEFs treated with compounds (FIG. 9)
Type: cell-based
Protocol: FIG. 9 is a series of panels, panels A-E showing TSC2 loss confers sensitivity to CCNT1, RNGTT, or CDK11 loss of function. Panel A is a schematic of the methods disclosed herein. […] Panel B represents data corresponding to the CDK9/CDK11 inhibitor JWD07 (5 μM). Panel C represents data corresponding to the CDK2/CDK9/CDK11 inhibitor AT7915 (2 μM). Panel D represents data corresponding to the RNGTT/IMPDH inhibitor Mizoribine (2.5 μM). Panel E represents data corresponding to the mTORC1 inhibitor Rapamycin (20 nM).

NC(=O)c1ncn([C@@H]2O[C@H](CO)[C@@H](O)[C@H]2O)c1O [Mizoribine]
proliferation of Tsc2−/− MEFs relative to Tsc2+/+ MEFs (2.5 μM, FIG. 9 panel D): selectively reduce proliferation
cytotoxic effect on Tsc2−/− cells (JWD07 5 μM, AT7915 2 μM, Mizoribine 2.5 μM): exert a cytotoxic effect
selective effects on cell viability in Tsc2−/− cells compared with rapamycin (JWD07 5 μM, AT7915 2 μM, Mizoribine 2.5 μM vs Rapamycin 20 nM): superior to rapamycin
